The record followed here is US4000269A, “S-(α-substituted-arylmethylthio, -arylmethylsulfinyl, and -arylmethylsulfonyl)methyl phosphorus esters used as insecticides” (priority 1975, dated 1976).

Each structure is given as a SMILES string.

The first experiment concerns Tarnished Plant Bug (Lygus lineolaris). The experiment in a line: A. Tarnished Plant Bug leaf-dip test. The settings on record: 48 h, 100 ppm., 2 days, read-out: Percent Mortality, Tarnished plant Bug. In kind it is in vivo. The protocol: Test compounds are prepared as 1000 ppm. solutions in 10 % acetone, 0.2 % Alrodyne 315 , and 89.8 % water. A tenfold dilution is made with 65 % acetone and 35 % water. The primary leaves of Sieva lima bean plants are dipped for 3 to 5 seconds in the test solutions and placed in an exhaust hood to dry. When dry, each leaf is placed in a 4 -inch petri dish with a moist filter paper on the bottom. Ten adult Lygus bugs are aspirated from the stock culture and placed in the petri dish. The dishes are covered and held at 80° F. and 50 % R.H. After 2 days, mortality counts are made.
`COP(=S)(OC)SCSC(C)(C)c1cc(Cl)ccc1Cl` [drawing 10]: the mortality at 100 ppm was 60%.

For a further experiment, the system named is Western Potato Leafhopper (Empoasca abrupta). Kind of experiment: G. Western Potato Leafhopper plant-dip test. The experiment is classed as in vivo. Conditions: 48 h, 10 ppm., 2 days, read-out: Percent Mortality, Western Potato Leafhopper. The method, then:
Sieva lima bean plants with the primary leaf expanded to 3 to 4 inches are dipped into 100 or 10 ppm. 50 % acetone/50 % water solutions and set in the hood to dry. A 1 -inch piece of the tip of a treated leaf is cut off and placed in a 4 -inch petri dish with a moist filter paper in the bottom. From 3 to 10 second-instar nymphs are tapped from the culture plants into the test dish and rapidly covered. Mortality counts are made after 2 days at 80° F., and 50 % R.H.
In the case of `COP(=S)(OC)SCSC(C)(C)c1cc(Cl)ccc1Cl` [drawing 10], the mortality at 10 ppm worked out at 40%.

Staying with this experiment, now noted: 48 h, 100 ppm., 2 days, read-out: Percent Mortality, Western Potato Leafhopper.
Turning to `COP(=S)(OC)SCSC(C)(C)c1cc(Cl)ccc1Cl` [drawing 10], the mortality at 100 ppm was 100%.

In another experiment the test system is Malaria Mosquito (Anopheles quadrimaculatus). Kind of experiment: H. Malaria Mosquito Adult Test. In kind it is in vivo. The settings on record: 24 h, adults, 1 day, read-out: Percent Mortality, Malaria Mosquito. The method, then:
Solutions of 65% acetone/35% water containing 10 ppm. of test compound are poured into wide-mouth 2-ounce jars, each containing a microscope slide. The slides are removed from the test solution with forceps and laid horizontally to dry on a wide-mouth 4-ounce bottle. When dry, they are placed in the same 4-ounce bottle and 10 4- to 5-day-old mosquitoes of mixed sexes are added to each bottle. A piece of cotton gauze held on by an elastic band serves as a lid, and wad of cotton soaked in 10% honey solution serves as food. Mortality counts are made after 1 day at 80° F., 50% R.H. (relative humidity) Data obtained with the above procedures are reported in Table II below.
In the case of `COP(=S)(OC)SCSC(C)(C)c1cc(Cl)ccc1Cl` [drawing 10], the mortality at 10 ppm came to 70%.

The test system of another experiment is Southern Armyworm (Prodenia eridania). Kind of experiment: D. Southern Armyworm leaf-dip test. In kind it is in vivo. Conditions: Spodoptera eridania, 48 h; 100 ppm.; 2 days; read-out: Percent Mortality, Southern Armyworm. The method, then: Compounds are tested at 1000 and 100 ppm. in solution or suspension in 65 % acetone/35 % water. Sieva lima bean primary leaves are dipped for 3 seconds in the test solution and set in a hood on a screen to dry. When dry, each leaf is placed in a 4 -inch petri dish which has a moist filter paper in the bottom and ten third-instar armyworm larvae about 3/8 inch long. The dishes are covered and held at 80° F., and 60 % R.H. After 2 days, mortality counts and estimates of the amount of feeding are made. Compounds showing partial kill and/or inhibition of feeding are held an extra day for further observations.
Take `COP(=S)(OC)SCSC(C)(C)c1cc(Cl)ccc1Cl` [drawing 10]: the mortality at 100 ppm came to 100%.

The experiment is the same for the next values; noted with them: Spodoptera eridania, 48 h; 1000 ppm.; 2 days; read-out: Percent Mortality, Southern Armyworm.
As to `COP(=S)(OC)SCSC(C)(C)c1cc(Cl)ccc1Cl` [drawing 10], the mortality at 1000 ppm was 100%.

A further experiment relates to Southern corn rootworm larvae (Diabrotica undecimpunctata). The experiment in a line: Southern Corn Rootworm Control (treated soil, dust on talc). In kind it is in vivo. Conditions: 144 h, 1 lbs./Acre, potting soil, mortality after 6 days, read-out: Percent Control of Southern Corn Rootworm Larvae. The method, then:
Compounds are prepared as dusts on talc. The compounds are dissolved in acetone, and appropriate rates obtained by serial dilution. One and one-quarter milliliters of solution is pipetted onto a standard volume of dust in 1 -ounce jars, and the acetone allowed to evaporate. Twenty-five milliliters of moist soil and about 200 millet seeds are placed in the jar, capped and the contents thoroughly mixed. Ten second-instar larvae of the Southern corn rootworm (Diabrotica undecimpunctata ) are then placed in each jar. Mortality counts are made after 6 days and percent mortality determined.
Take `CCOP(=S)(OCC)SCSC(C)(C)c1cccc(C)c1` [Example 14, S-(m,α,α-Trimethylbenzylthio)methyl O,O-Diethyl Phosphorodithioate]: the mortality at 1120.85 g/ha turned out to be 100%.

As to `CCOP(=S)(OCC)SCSC(C)(C)c1cc(Cl)ccc1Cl` [Example 10, S-(2,5-Dichloro-α,α-dimethylbenzylthio)-methyl O,O-Diethyl Phosphorodithioate], the mortality at 1120.85 g/ha worked out at 0%.

In the case of `COP(=S)(OC)SCSC(C)(C)c1ccc(C#N)cc1` [Example 24, S-(p-Cyano-α,α-dimethylbenzylthio)methyl O,O-Dimethyl Phosphorodithioate], the mortality at 1120.85 g/ha is 0%.

Regarding `CCOP(=S)(OCC)SCSC(C)(CC)c1ccccc1` (stereo not drawn) [Example 21, S-(α-Ethyl-α-methylbenzylthio)methyl O,O-Diethyl Phosphorodithioate], the mortality at 1120.85 g/ha was 0%.

In the case of `CCOP(=S)(OCC)SCSC(CC)(CC)c1ccccc1` [Example 22, S-(α,α-Diethylbenzylthio)methyl O,O-Diethyl Phosphorodithioate], the mortality at 1120.85 g/ha was determined as 50%.

The experiment is the same for the next values; noted with them: 144 h, 10 lbs./Acre, potting soil, mortality after 6 days, read-out: Percent Control of Southern Corn Rootworm Larvae.
`CCOP(=S)(OCC)SCSC(C)(C)c1cccc(C)c1` [Example 14, S-(m,α,α-Trimethylbenzylthio)methyl O,O-Diethyl Phosphorodithioate]: the mortality at 11208.5 g/ha was determined as 100%.

As to `CCOP(=S)(OCC)SCSC(C)(C)c1cc(Cl)ccc1Cl` [Example 10, S-(2,5-Dichloro-α,α-dimethylbenzylthio)-methyl O,O-Diethyl Phosphorodithioate], the mortality at 11208.5 g/ha worked out at 100%.

Turning to `COP(=S)(OC)SCSC(C)(C)c1ccc(C#N)cc1` [Example 24, S-(p-Cyano-α,α-dimethylbenzylthio)methyl O,O-Dimethyl Phosphorodithioate], the mortality at 11208.5 g/ha came out at 100%.

On to `CCOP(=S)(OCC)SCSC(C)(CC)c1ccccc1` (stereo not drawn) [Example 21, S-(α-Ethyl-α-methylbenzylthio)methyl O,O-Diethyl Phosphorodithioate], for which the mortality at 11208.5 g/ha came to 100%.

As for `CCOP(=S)(OCC)SCSC(CC)(CC)c1ccccc1` [Example 22, S-(α,α-Diethylbenzylthio)methyl O,O-Diethyl Phosphorodithioate], the mortality at 11208.5 g/ha turned out to be 100%.

The experiment is the same for the next values; noted with them: 144 h, 50 lbs./Acre, potting soil, mortality after 6 days, read-out: Percent Control of Southern Corn Rootworm Larvae.
As to `CCOP(=S)(OCC)SCSC(C)(C)c1cccc(C)c1` [Example 14, S-(m,α,α-Trimethylbenzylthio)methyl O,O-Diethyl Phosphorodithioate], the mortality at 56042.5 g/ha was determined as 100%.

With `CCOP(=S)(OCC)SCSC(C)(C)c1cc(Cl)ccc1Cl` [Example 10, S-(2,5-Dichloro-α,α-dimethylbenzylthio)-methyl O,O-Diethyl Phosphorodithioate], the mortality at 56042.5 g/ha amounted to 100%.

For the compound `COP(=S)(OC)SCSC(C)(C)c1ccc(C#N)cc1` [Example 24, S-(p-Cyano-α,α-dimethylbenzylthio)methyl O,O-Dimethyl Phosphorodithioate], the mortality at 56042.5 g/ha worked out at 100%.

Regarding `CCOP(=S)(OCC)SCSC(C)(CC)c1ccccc1` (stereo not drawn) [Example 21, S-(α-Ethyl-α-methylbenzylthio)methyl O,O-Diethyl Phosphorodithioate], the mortality at 56042.5 g/ha amounted to 100%.

With `CCOP(=S)(OCC)SCSC(CC)(CC)c1ccccc1` [Example 22, S-(α,α-Diethylbenzylthio)methyl O,O-Diethyl Phosphorodithioate], the mortality at 56042.5 g/ha is 100%.

In a further experiment the test system is Bean Aphid (Aphis fabae). Kind of experiment: C. Bean Aphid spray test. The experiment is classed as in vivo. Conditions: 48 h, 1 ppm., 2 days, read-out: Percent Mortality, Bean Aphid. The method, then:
Compounds are tested at 100 , 10 and 1 ppm. in solution or suspension in 65 % acetone/35 % water. Two-inch fiber pots each containing a nasturtium plant 2 inches high and infested with about 150 aphids 2 days earlier, are placed on a turntable (4 RPM) and sprayed for two revolutions with a No. 154 DeVilbiss Atomizer at 20 psi. air pressure. The spray tip is held about 6 inches from the plants, and the spray is directed so as to give complete coverage of the aphids and the plants. The sprayed plants are laid on their sides on white enamel trays. Mortality estimates are made after holding for 2 days at 70° F. and 50% R.H.
For the compound `COP(=S)(OC)SCSC(C)(C)c1cc(Cl)ccc1Cl` [drawing 10], the mortality at 1 ppm turned out to be 50%.

The experiment is the same for the next values; noted with them: 48 h, 10 ppm., 2 days, read-out: Percent Mortality, Bean Aphid.
On to `COP(=S)(OC)SCSC(C)(C)c1cc(Cl)ccc1Cl` [drawing 10], for which the mortality at 10 ppm stood at 100%.

Staying with this experiment, now noted: 48 h, 100 ppm., 2 days, read-out: Percent Mortality, Bean Aphid.
In the case of `COP(=S)(OC)SCSC(C)(C)c1cc(Cl)ccc1Cl` [drawing 10], the mortality at 100 ppm was 100%.

The next experiment concerns Boll Weevil (Anthonomus grandis). The experiment in a line: B. Boll Weevil leaf-dip test. The settings on record: 48 h, 100 ppm., 2 days, read-out: Percent Mortality, Boll Weevil. In kind it is in vivo. The protocol: Test compounds are prepared as 1000 ppm. solutions in 10 % acetone, 0.2 % Alrodyne 315 , and 89.8 % water. A tenfold dilution is made with 65 % acetone and 35 % water. The first or second true leaf of young cotton plants is dipped for 3 to 5 seconds in the test solution and placed in an exhaust hood to dry. When dry, each leaf is placed in a 4 -inch petri dish with a moist filter paper on the bottom. Ten adult boll weevils are removed from the stock culture and placed in the petri dish. The dishes are covered and held at 80° F. and 50 % R.H. After 2 days, mortality counts are made.
On to `COP(=S)(OC)SCSC(C)(C)c1cc(Cl)ccc1Cl` [drawing 10], for which the mortality at 100 ppm stood at 90%.

The subject of a further experiment is Two-spotted Spider Mite (Tetranychus urticae). The experiment in a line: E. Two-spotted Spider Mite plant-dip test. The experiment is classed as in vivo. The settings on record: 48 h, 100 ppm., 2 days, read-out: Percent Mortality, Two-spotted Spider Mite. The method, then: Sieva lima bean plants with primary leaves 3 to 4 inches long are infested with about 100 adult mites per leaf 4 hours before use in this test. The mite and egg infested plants are dipped for 3 seconds in the same solutions used in the aphid test, and the plants set in the hood to dry. They are held for 2 days at 80° F., 60% R.H., and the adult mite mortality estimated on one leaf under a steroscopic microscope. The other leaf is left on the plant an additional 5 days and then examined at 10 X power to estimate the kill of eggs and of newly hatched nymphs, giving a measure of ovicidal and residual action, respectively.
Regarding `COP(=S)(OC)SCSC(C)(C)c1cc(Cl)ccc1Cl` [drawing 10], the mortality at 100 ppm was 100%.

The same experiment, now with this note: 48 h, read-out: Percent Mortality, Two-spotted Spider Mite.
For `COP(=S)(OC)SCSC(C)(C)c1cc(Cl)ccc1Cl` [drawing 10], the mortality at 300 ppm amounted to 100%.
